The supplement of paper PMC10307832

Key:
Assay in all cases: relative viability (nuclei count vs DMSO), 5 days (fraction); higher = more cells survive
BX 795 + Palbociclib = compound: O=C(NCCCNc1nc(Nc2cccc(NC(=O)N3CCCC3)c2)ncc1I)c1cccs1 [BX 795] + CC(=O)c1c(C)c2cnc(Nc3ccc(N4CCNCC4)cn3)nc2n(C2CCCC2)c1=O [Palbociclib] (partner 0.5 µM)
In short: (§1)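 Lung cancer cell lines were seeded in 1536-well plates and dosed by pin tool the next day, with either a single drug or a fixed anchor-drug dose combined with five library-drug doses (not always all listed) spaced in √10 steps. Five days later, one step fixed the cells and stained their nuclei (final 0.05% Triton X-100, 1% formaldehyde, 1 ug/ml Hoechst), and nuclei were counted on 4× images. Relative viability is the nuclei count in treated wells divided by the count in vehicle wells, and each value is the median of duplicate plates.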

BX 795 + Crizotinib = compound: O=C(NCCCNc1nc(Nc2cccc(NC(=O)N3CCCC3)c2)ncc1I)c1cccs1 [BX 795] + C[C@@H](Oc1cc(-c2cnn(C3CCNCC3)c2)cnc1N)c1c(Cl)ccc(F)c1Cl [Crizotinib] (partner 1 µM)
In short: as §1

BX 795 + Linsitinib = compound: O=C(NCCCNc1nc(Nc2cccc(NC(=O)N3CCCC3)c2)ncc1I)c1cccs1 [BX 795] + C[C@]1(O)C[C@@H](c2nc(-c3ccc4ccc(-c5ccccc5)nc4c3)c3c(N)nccn32)C1 [Linsitinib] (partner 1 µM)
In short: as §1

BX 795 + AZD7762 = compound: O=C(NCCCNc1nc(Nc2cccc(NC(=O)N3CCCC3)c2)ncc1I)c1cccs1 [BX 795] + NC(=O)Nc1cc(-c2cccc(F)c2)sc1C(=O)N[C@H]1CCCNC1 [AZD7762] (partner 0.2 µM)
In short: as §1

BX 795 + Pemetrexed = compound: O=C(NCCCNc1nc(Nc2cccc(NC(=O)N3CCCC3)c2)ncc1I)c1cccs1 [BX 795] + Nc1nc2[nH]cc(CCc3ccc(C(=O)N[C@@H](CCC(=O)O)C(=O)O)cc3)c2c(=O)[nH]1 [Pemetrexed] (partner 0.2 µM)
In short: as §1

| Cell Line | relative viability (BX 795 + Palbociclib; first compound 0.04 µM) | relative viability (BX 795 + Palbociclib; first compound 0.1265 µM) | relative viability (BX 795 + Palbociclib; first compound 0.4 µM) | relative viability (BX 795 + Palbociclib; first compound 1.265 µM) | relative viability (BX 795 + Crizotinib; first compound 0.04 µM) | relative viability (BX 795 + Crizotinib; first compound 0.1265 µM) | relative viability (BX 795 + Crizotinib; first compound 0.4 µM) | relative viability (BX 795 + Crizotinib; first compound 1.265 µM) | relative viability (BX 795 + Linsitinib; first compound 0.04 µM) | relative viability (BX 795 + Linsitinib; first compound 0.1265 µM) | relative viability (BX 795 + Linsitinib; first compound 0.4 µM) | relative viability (BX 795 + Linsitinib; first compound 1.265 µM) | relative viability (BX 795 + AZD7762; first compound 0.04 µM) | relative viability (BX 795 + AZD7762; first compound 0.1265 µM) | relative viability (BX 795 + AZD7762; first compound 0.4 µM) | relative viability (BX 795 + AZD7762; first compound 1.265 µM) | relative viability (BX 795 + Pemetrexed; first compound 0.04 µM) | relative viability (BX 795 + Pemetrexed; first compound 0.1265 µM) | relative viability (BX 795 + Pemetrexed; first compound 0.4 µM) | relative viability (BX 795 + Pemetrexed; first compound 1.265 µM) |
| --- | --- | --- | --- | --- | --- | --- | --- | --- | --- | --- | --- | --- | --- | --- | --- | --- | --- | --- | --- | --- |
| 201T | 0.333 | 0.34 | 0.376 | 0.405 | 1.06 | 1.03 | 1.1 | 1.03 | 1.06 | 1.08 | 1.04 | 1.03 | 0.6 | 0.603 | 0.597 | 0.628 | 0.302 | 0.305 | 0.298 | 0.304 |
| A-427 | 0.562 | 0.482 | 0.508 | 0.502 | 0.906 | 0.924 | 0.771 | 0.446 | 1.17 | 1.13 | 1.15 | 0.982 | 0.774 | 0.843 | 0.694 | 0.647 | 1.02 | 0.925 | 1.08 | 0.849 |
| BEN | 0.454 | 0.436 | 0.49 | 0.491 | 0.984 | 1.02 | 0.787 | 0.821 | 0.996 | 0.944 | 0.842 | 0.864 | 0.659 | 0.653 | 0.587 | 0.647 | 0.803 | 0.766 | 0.771 | 0.771 |
| CAL-12T | 0.473 | 0.55 | 0.298 | 0.218 | 0.562 | 0.426 | 0.309 | 0.333 | 0.833 | 0.901 | 0.723 | 0.374 | 0.555 | 0.617 | 0.609 | 0.584 | 1.1 | 1.28 | 0.809 | 0.494 |
| ChaGo-K-1 | 0.889 | 0.929 | 0.928 | 0.705 | 1.11 | 1.14 | 1.05 | 0.961 |  |  |  |  | 0.797 | 0.864 | 0.858 | 0.815 | 0.243 | 0.258 | 0.254 | 0.258 |
| EKVX | 0.51 | 0.483 | 0.381 | 0.365 | 1.04 | 0.867 | 0.732 | 0.753 | 1.1 | 1.21 | 0.833 | 0.839 | 0.67 | 0.805 | 0.671 | 0.645 | 0.309 | 0.379 | 0.228 | 0.386 |
| EMC-BAC-2 | 0.536 | 0.52 | 0.512 | 0.432 | 0.724 | 0.733 | 0.631 | 0.525 | 0.79 | 0.888 | 0.83 | 0.615 | 1.06 | 1.09 | 0.945 | 0.727 | 0.383 | 0.446 | 0.428 | 0.454 |
| EPLC-272H | 0.352 | 0.419 | 0.317 | 0.387 | 0.984 |  | 0.922 | 0.813 | 1.33 |  | 1.06 | 0.972 | 0.215 | 0.337 | 0.234 | 0.259 | 0.272 | 0.294 | 0.123 | 0.21 |
| H3255 | 0.323 | 0.276 | 0.314 | 0.316 | 0.903 | 0.831 | 0.852 | 0.644 | 1.04 | 1.07 | 1.05 | 0.842 | 0.933 | 0.869 | 0.846 | 0.859 | 0.615 | 0.531 | 0.584 | 0.509 |
| HARA | 0.237 | 0.183 | 0.201 | 0.208 | 1.21 | 1.06 | 1 | 0.601 | 0.896 | 0.966 | 0.916 | 0.795 | 0.149 | 0.301 | 0.286 | 0.387 | 0.21 | 0.227 | 0.195 | 0.227 |
| HCC-15 | 0.766 | 0.712 | 0.663 | 0.616 | 0.784 | 0.883 | 0.743 | 0.461 | 0.915 | 0.964 | 0.937 | 0.675 | 1.21 | 1.26 | 1.27 | 1.18 | 0.199 | 0.202 | 0.215 | 0.194 |
| HCC-44 | 0.997 | 0.968 | 1.05 | 1.07 | 0.811 | 0.876 | 0.973 | 0.581 | 0.648 | 0.668 | 0.787 | 0.426 | 0.976 | 1 | 1.09 | 1.09 | 0.537 | 0.614 | 0.449 | 0.666 |
| HCC-78 | 0.56 | 0.437 | 0.49 | 0.433 | 0.413 | 0.354 | 0.355 | 0.318 | 0.624 | 0.657 | 0.534 | 0.554 | 0.583 | 0.631 | 0.606 | 0.594 | 0.913 | 0.888 | 0.873 | 0.883 |
| HCC-366 | 0.477 | 0.362 | 0.289 | 0.415 | 0.541 | 0.616 | 0.188 | 0.313 | 0.469 | 0.727 | 0.257 | 0.3 | 0.228 | 0.227 | 0.19 | 0.306 | 0.104 | 0.168 | 0.0915 | 0.149 |
| HCC-827 | 0.551 | 0.501 | 0.478 | 0.484 | 0.935 | 0.923 | 0.892 | 0.712 | 0.972 | 0.849 | 0.987 | 0.75 | 0.206 | 0.224 | 0.211 | 0.221 | 0.266 | 0.288 | 0.245 | 0.241 |
| HOP-62 | 0.471 | 0.465 | 0.502 | 0.47 | 1.04 | 0.953 | 1.13 | 0.941 | 0.915 | 1.02 | 1.2 | 0.525 | 0.602 | 0.715 | 0.672 | 0.528 | 0.303 | 0.284 | 0.296 | 0.306 |
| LC-2-ad | 0.476 | 0.493 | 0.408 | 0.483 | 0.558 | 0.316 | 0.325 | 0.402 | 0.83 | 0.715 | 0.637 | 0.351 | 0.806 | 0.808 | 0.795 | 0.858 | 0.267 | 0.288 | 0.25 | 0.263 |
| LCLC-97TM1 | 0.22 | 0.201 | 0.314 | 0.208 | 0.475 | 0.431 | 0.306 | 0.209 | 0.156 | 0.204 | 0.198 | 0.153 | 0.334 | 0.352 | 0.239 | 0.346 | 0.152 | 0.184 | 0.177 | 0.184 |
| LCLC-103H | 0.441 | 0.511 | 0.529 | 0.445 | 0.979 | 1.1 | 1.01 | 1.04 | 1.12 | 1.16 | 0.901 | 1.09 | 0.706 | 0.878 | 0.712 | 0.849 | 0.432 | 0.429 | 0.407 | 0.452 |
| LK-2 | 0.83 | 0.862 | 0.635 | 0.559 | 0.238 | 0.171 | 0.21 | 0.193 | 0.518 | 0.396 | 0.484 | 0.393 | 0.367 | 0.33 | 0.445 | 0.3 | 0.277 | 0.237 | 0.269 | 0.24 |
| LOU-NH91 | 0.5 | 0.478 | 0.558 | 0.5 | 0.768 | 0.721 | 0.715 | 0.796 | 0.925 | 0.956 | 0.802 | 0.94 | 0.757 | 0.765 | 0.71 | 0.722 | 0.321 | 0.38 | 0.294 | 0.377 |
| LU99A | 0.434 | 0.406 | 0.36 | 0.277 | 0.646 | 0.593 | 0.455 | 0.361 | 0.552 | 0.631 | 0.467 | 0.225 | 0.344 | 0.355 | 0.347 | 0.24 | 0.148 | 0.197 | 0.128 | 0.209 |
| LXF-289 | 0.671 | 0.595 | 0.638 | 0.579 | 0.86 | 0.82 | 0.778 | 0.47 | 0.969 | 0.949 | 1.03 | 0.678 | 1.07 | 1.14 | 0.995 | 1.06 | 0.898 | 0.832 | 0.894 | 0.831 |
| NCI-H23 | 0.457 | 0.43 | 0.567 | 0.464 | 0.459 | 0.503 | 0.374 | 0.257 | 0.584 | 0.655 | 0.441 | 0.387 | 0.38 | 0.231 | 0.237 | 0.345 | 0.559 | 0.61 | 0.418 | 0.502 |
| NCI-H1395 | 0.627 | 0.612 | 0.426 | 0.498 |  |  |  |  | 1.1 | 0.957 | 0.611 | 0.786 | 0.375 | 0.427 | 0.39 | 0.381 | 0.675 | 0.872 | 0.407 | 0.626 |
| NCI-H1793 | 0.386 | 0.246 | 0.384 | 0.296 |  |  |  |  | 0.874 | 1.06 | 1.01 | 0.507 | 0.425 | 0.447 | 0.484 | 0.487 | 0.872 | 0.628 | 0.856 | 0.711 |
| NCI-H2170 | 0.364 | 0.395 | 0.394 | 0.381 | 1.17 | 1.27 | 1.07 | 1.13 |  |  |  |  | 0.874 | 1.09 | 0.812 | 0.791 | 0.271 | 0.286 | 0.243 | 0.249 |
| SW 900 | 0.512 |  | 0.67 | 0.593 |  |  |  |  |  |  |  |  | 0.55 |  | 0.619 | 0.633 | 0.488 |  | 0.469 | 0.455 |
